Consider eight compounds from patent US9145351B2, “Azole derivatives, methods for producing the same, intermediate thereof, agro-horticultural agents” (KUREHA CORPORATION, priority 2009, dated 2015).

Like-named read-outs stand apart in the source and are kept apart here.

Holding throughout (format): cell-based
Experiment [1] has as its system Phaeosphaeria nodorum. Nature of the experiment: Plate medium fungicidal assay, wheat Septoria nodorum blotch P.n (Experimental Example 5). The settings on record: Parastagonospora nodorum. A digest of the protocol: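 Compound in DMSO mixed into PDA plate medium at 50 mg/L and 5 mg/L; 4 mm mycelial plug of pre-cultured fungus inoculated onto plate. Colony diameter compared with untreated plate, % mycelial growth inhibition = 100(dc−dt)/dc, scored in 5 grades.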

The test system of experiment [2] is Ustilago nuda. Nature of the experiment: Plate medium fungicidal assay, barley loose smut U.n (Experimental Example 5). The settings on record: Ustilago nuda. In outline:
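Compounds in DMSO were mixed into molten PDA to give plates at 50 mg/L and 5 mg/L, then inoculated with a 4 mm mycelial plug. Colony diameter was compared with untreated plates as % inhibition = 100(dc−dt)/dc, scored on a 5-grade scale.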

Experiment [3] has as its system Pyricularia oryzae. Nature of the experiment: microbe, parasite or virus in culture. Conditions: Pyricularia oryzae.
Experiment [4] concerns Alternaria alternata. Nature of the experiment: Plate medium fungicidal assay, Alternaria blotch A.m (Experimental Example 5). Conditions: Alternaria alternata. In outline: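 Compound dissolved in DMSO and mixed into PDA plates at 50 mg/L and 5 mg/L; 4 mm mycelial plug inoculated. Colony diameter compared with untreated plates, % mycelial growth inhibition = 100(dc−dt)/dc, converted to one of 5 grades.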

The test system of experiment [5] is Fusarium oxysporum. Nature of the experiment: Plate medium fungicidal assay, cucumber fusarium wilt F.c (Experimental Example 5). The settings on record: Fusarium oxysporum. A digest of the protocol:
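Compound in DMSO mixed into PDA agar to give plates at 50 mg/L and 5 mg/L, then inoculated with 4 mm mycelial plug. Colony diameter compared with untreated plate as % mycelial growth inhibition, R=100(dc−dt)/dc, then scored on a 5-grade scale.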

Experiment [6] concerns Penicillium sp. Nature of the experiment: Plate medium assay, industrial material deteriorating microorganism, Penicillium (Experimental Example 5). The settings on record: treatment at 50 mg/l, PDA plate medium, read-out: growth inhibition grade. As to the method: (§1) In this Experimental Example, the fungicidal effects of the inventive compounds on various phytopathogenic fungi for plants and hazardous microorganism for industrial materials were examined by the methods described below. Each inventive compound was dissolved in 2 ml of dimethyl sulfoxide. 0.6 ml of this solution was added to 60 nil of a PDA medium (potato dextrose agar medium) at about 60 degrees C., which was mixed thoroughly in a 100-ml conical flask, and poured into a dish, where it was solidified, thereby obtaining a plate medium containing the inventive compound at 50 mg/L and 5 mg/L. On the other hand, a subject microorganism previously cultured on a plate medium was cut out using a cork borer whose diameter was 4 mm, and inoculated to the test compound-containing plate medium described above. […] The growth degree of the microorganism on the test compound-containing plate medium thus observed was compared with the growth degree of the microorganism in the untreated group, and % mycelial growth inhibition was calculated by the following equation. R=100(dc-dt)/dc wherein R=% mycelial extension inhibition, dc=flora diameter in untreated plate, dt=flora diameter in treated plate. The results obtained as described above were evaluated as one of the 5 grades according to the following criteria.

Experiment [7] deals with Mucor sp. Briefly: Plate medium assay, industrial material deteriorating microorganism, Mucor (Experimental Example 5). Conditions: treatment at 50 mg/l, PDA plate medium, read-out: growth inhibition grade. As to the method: as §1
The mark [8] stands for this setting: plate medium, 5 mg/L, read-out: growth inhibition grade P.n.
Setting [9] is: plate medium, 50 mg/L, read-out: growth inhibition grade P.n.
[10] abbreviates: plate medium, 5 mg/L, read-out: growth inhibition grade U.n.
Setting [11] is: plate medium, 50 mg/L, read-out: growth inhibition grade U.n.
Where [12] appears, read: read-out: growth inhibition grade P.o.
The mark [13] stands for this setting: plate medium, 5 mg/L, read-out: growth inhibition grade A.m.
Where [14] appears, read: plate medium, 50 mg/L, read-out: growth inhibition grade A.m.
The mark [15] stands for this setting: plate medium, 5 mg/L, read-out: growth inhibition grade F.c.
The mark [16] stands for this setting: plate medium, 50 mg/L, read-out: growth inhibition grade F.c.
The mark [17] stands for this setting: plate medium containing compound at 5 mg/L, read-out: Growth inhibition grade, P.n.
The mark [18] stands for this setting: plate medium containing compound at 50 mg/L, read-out: Growth inhibition grade, P.n.
[19] abbreviates: plate medium containing compound at 5 mg/L, read-out: Growth inhibition grade, U.n.
Setting [20] is: plate medium containing compound at 50 mg/L, read-out: Growth inhibition grade, U.n.
[21] abbreviates: read-out: Growth inhibition grade, P.o.
The mark [22] stands for this setting: plate medium containing compound at 5 mg/L, read-out: Growth inhibition grade, A.m.
[23] abbreviates: plate medium containing compound at 50 mg/L, read-out: Growth inhibition grade, A.m.
The mark [24] stands for this setting: plate medium containing compound at 5 mg/L, read-out: Growth inhibition grade, F.c.
[25] abbreviates: plate medium containing compound at 50 mg/L, read-out: Growth inhibition grade, F.c.

The inhibition is the change of the read-out against control, counted positive when it falls. Consider `C[C@@]1(CCCl)CC[C@@H](Cc2ccc(Cl)cc2)[C@]1(O)Cn1cncn1` (racemic) [Compound I-104, (1RS,2SR,5SR)-5-(4-chlorobenzyl)-2-(2-chloroethyl)-2-methyl-1-(1H-1,2,4-triazol-1-ylmethyl)cyclopentanol], for which the inhibition at 5 µg/mL in experiment [1] (setting [8]), in experiment [2] (setting [10]), in experiment [3] (setting [12]), in experiment [4] (setting [13]) and in experiment [5] (setting [15]) was above 80% each time. The inhibition at 50 µg/mL is above 80% in experiment [1] (setting [9]); above 80% in experiment [2] (setting [11]); above 80% in experiment [3] (setting [12]); above 80% in experiment [4] (setting [14]); above 80% in experiment [5] (setting [16]); 60 to 80% in experiment [6]. The inhibition at 50 µg/mL in experiment [7] fell in the range of 60 to 80%.
`O[C@]1(Cn2cncn2)[C@H](Cc2ccc(Cl)cc2)CC[C@@H]1C(F)(F)F` (racemic) [Compound I-65, (1RS,2SR,5SR)-5-(4-chlorobenzyl)-2-trifluoromethyl-1-(1H-1,2,4-triazol-1-ylmethyl)cyclopentanol]: the inhibition at 5 µg/mL lay within 60 to 80% in experiment [1] (setting [17]); 40 to 60% in experiment [2] (setting [19]); 40 to 60% in experiment [3] (setting [21]); 40 to 60% in experiment [4] (setting [22]); 40 to 60% in experiment [5] (setting [24]). Further, the inhibition at 50 µg/mL in experiment [1] (setting [18]) was above 80%; in experiment [2] (setting [20]), above 80%; in experiment [3] (setting [21]) it was above 80%; in experiment [4] (setting [23]), above 80%; in experiment [5] (setting [25]), above 80%; in experiment [6] it was 60 to 80%. Besides, in experiment [7], the inhibition at 50 µg/mL lay in the range of 60 to 80%.
Consider `C[C@@]1(CCl)CC[C@H](Cc2ccc(Cl)cc2)[C@]1(O)Cn1cncn1` (racemic) [Compound I-401, (1RS,2RS,5RS)-5-(4-chlorobenzyl)-2-chloromethyl-2-methyl-1-[1,2,4]triazol-1-ylmethylcyclopentanol], for which the inhibition at 5 µg/mL in experiment [1] (setting [8]) is above 80%; in experiment [2] (setting [10]), 60 to 80%; in experiment [3] (setting [12]) it was above 80%; in experiment [4] (setting [13]), 60 to 80%; in experiment [5] (setting [15]) it was above 80%. Besides, the inhibition at 50 µg/mL is above 80% in experiment [1] (setting [9]); above 80% in experiment [2] (setting [11]); above 80% in experiment [3] (setting [12]); above 80% in experiment [4] (setting [14]); above 80% in experiment [5] (setting [16]); 60 to 80% in experiment [6]. In addition, the inhibition at 50 µg/mL in experiment [7] was 60 to 80%.
Consider `C[C@]1(CCl)CC[C@@H](Cc2ccc(Cl)cc2)[C@]1(O)Cn1cncn1` (racemic) [Compound I-1, (1RS,2SR,5SR)-5-(4-chlorobenzyl)-2-chloromethyl-2-methyl-1-(1H-1,2,4-triazol-1-ylmethyl)cyclopentanol], for which the inhibition at 5 µg/mL in experiment [1] (setting [17]), in experiment [1] (setting [8]), in experiment [2] (setting [19]), in experiment [2] (setting [10]), in experiment [3] (setting [21]) and in experiment [3] (setting [12]) was above 80% each time. For the same compound, the inhibition at 5 µg/mL in experiment [4] (setting [22]), in experiment [4] (setting [13]), in experiment [5] (setting [24]) and in experiment [5] (setting [15]) was above 80% each time. Besides, the inhibition at 50 µg/mL in experiment [1] (setting [18]), in experiment [1] (setting [9]), in experiment [2] (setting [20]), in experiment [2] (setting [11]), in experiment [3] (setting [21]) and in experiment [3] (setting [12]) was above 80% throughout. The inhibition at 50 µg/mL was above 80% in experiment [4] (setting [23]); above 80% in experiment [4] (setting [14]); above 80% in experiment [5] (setting [25]); above 80% in experiment [5] (setting [16]); 60 to 80% in experiment [6]; 60 to 80% in experiment [7].
Take `C[C@]1(CBr)CC[C@@H](Cc2ccc(Cl)cc2)[C@]1(O)Cn1cncn1` (racemic) [Compound I-25, (1RS,2SR,5SR)-2-bromomethyl-5-(4-chlorobenzyl)-2-methyl-1-(1H-1,2,4-triazol-1-ylmethyl)cyclopentanol]: the inhibition at 5 µg/mL is 60 to 80% in experiment [1] (setting [17]); 40 to 60% in experiment [2] (setting [19]); above 80% in experiment [3] (setting [21]); 60 to 80% in experiment [4] (setting [22]); above 80% in experiment [5] (setting [24]). Moreover, the inhibition at 50 µg/mL in experiment [1] (setting [18]) is above 80%; in experiment [2] (setting [20]), above 80%; in experiment [3] (setting [21]), above 80%; in experiment [4] (setting [23]) it was above 80%; in experiment [5] (setting [25]) it was above 80%; in experiment [6], 60 to 80%. In addition, the inhibition at 50 µg/mL in experiment [7] was 60 to 80%.
In the case of `C[C@]1(CCl)CC[C@@H](Cc2cccc(Cl)c2)[C@]1(O)Cn1cncn1` (racemic) [Compound I-74, (1RS,2SR,5SR)-5-(3-chlorobenzyl)-2-chloromethyl-2-methyl-1-(1H-1,2,4-triazol-1-ylmethyl)cyclopentanol], the inhibition at 5 µg/mL in experiment [1] (setting [17]) is above 80%; in experiment [2] (setting [19]), above 80%; in experiment [3] (setting [21]), above 80%; in experiment [4] (setting [22]), 60 to 80%; in experiment [5] (setting [24]), above 80%. For the same compound, the inhibition at 50 µg/mL in experiment [1] (setting [18]) was above 80%; in experiment [2] (setting [20]) it was above 80%; in experiment [3] (setting [21]), above 80%; in experiment [4] (setting [23]), above 80%; in experiment [5] (setting [25]), above 80%; in experiment [6], 60 to 80%. Further, the inhibition at 50 µg/mL in experiment [7] was 60 to 80%.
With `CC(Cl)=C[C@]1(C)CC[C@@H](Cc2ccc(Cl)cc2)[C@]1(O)Cn1cncn1` (racemic) [Compound I-115, (1RS,2SR,5SR)-5-(4-chlorobenzyl)-2-(2-chloropropenyl)-2-methyl-1-(1H-1,2,4-triazol-1-ylmethyl)cyclopentanol], the inhibition at 5 µg/mL in experiment [1] (setting [8]) is 60 to 80%; in experiment [2] (setting [10]), 60 to 80%; in experiment [3] (setting [12]) it was above 80%; in experiment [4] (setting [13]), above 80%; in experiment [5] (setting [15]), above 80%. For the same compound, the inhibition at 50 µg/mL is above 80% in experiment [1] (setting [9]); above 80% in experiment [2] (setting [11]); above 80% in experiment [3] (setting [12]); above 80% in experiment [4] (setting [14]); above 80% in experiment [5] (setting [16]); 60 to 80% in experiment [6]. Further, in experiment [7], the inhibition at 50 µg/mL is 60 to 80%.
In the case of `C[C@]1(CBr)CC[C@@H](Cc2ccc(F)cc2)[C@]1(O)Cn1cncn1` (racemic) [Compound I-601, (1RS,2SR,5SR)-2-bromomethyl-5-(4-fluorobenzyl)-2-methyl-1-(1H-1,2,4-triazol-1-ylmethyl)cyclopentanol], the inhibition at 5 µg/mL in experiment [1] (setting [8]) is 60 to 80%; in experiment [2] (setting [10]) it was 40 to 60%; in experiment [3] (setting [12]), above 80%; in experiment [4] (setting [13]) it was 60 to 80%; in experiment [5] (setting [15]), above 80%. Further, the inhibition at 50 µg/mL in experiment [1] (setting [9]) is above 80%; in experiment [2] (setting [11]), above 80%; in experiment [3] (setting [12]), above 80%; in experiment [4] (setting [14]), above 80%; in experiment [5] (setting [16]) it was above 80%; in experiment [6], 60 to 80%. For the same compound, the inhibition at 50 µg/mL in experiment [7] was 60 to 80%.
